Data published in patent US20210252015A1, “CERTAIN (2S)-N-[(1S)-1-CYANO-2-PHENYLETHYL]-1,4-OXAZEPANE-2-CARBOXAMIDES FOR TREATING INFLAMMATORY BOWEL DISEASE” (Insmed Incorporated, priority 2018, published 2021).

What was measured:
[1] = test system: DSS-induced colitis in C57BL/6 mice; experiment: DSS-induced colitis murine study, Example 1A (endoscopy, stool consistency, body weight); assay type: in vivo; conditions: for mean endoscopy score: INS1007 1 mg/kg PO BID Day -7 to 20, scale 0-4
Procedure: (§1) Mice: Seventy-nine (79) male C57BL/6 mice with an average starting body weight (SEM) of 23.32 g (+1.53 g) were obtained from Charles River Laboratories (Wilmington, Mass.). Animals were acclimatized prior to the study. During this period, the animals were observed daily in order to reject any that presented in poor condition. Animals were fed with 5053 sterile rodent diet and water was provided ad libitum.
INS1007 Solutions: INS1007 was diluted with 0.5% hydroxypropylmethylcellulose in citrate buffer w/0.1% Tween 80 (pH 3.0). Solutions were stored at 4° C. INS1007 solutions were discarded after 3 days and fresh solutions were prepared.
Anti-p40 mAb solution: Anti-mouse IL-12 p40 (Clone: C17.8) obtained from BioXCell (Cat #: BE0051) was diluted with phosphate buffered saline. Solutions were stored at 4° C. Anti-mouse IL-12 p40 solutions were discarded after 7 days and fresh solutions were prepared.
DSS Induction Solution: Dextran sulfate sodium salt obtained from MP Biomedical (Cat #02160110) was diluted with water. DSS solutions were stored at room temperature.
Groups 1-4 were negative controls; groups 5-7 were treated with INS 1007 and Group 8 was treated with Anti-p40 mAb. ^i The dosing protocol for the Anti-p40 antibody is not shown in FIG. 1.
The study included three phases: a pre-treatment period (Veh/1007 Pretx in FIG. 1); DSS-induction period (DSS in FIG. 1) and a treatment period (Veh/1007 in FIG. 1). Colitis was induced in Groups 3-8 by exposure to 3% DSS Induction Solution from Day 0 to Day 5. Animals in Groups 2 and 4-7 were dosed via oral gavage (PO) twice daily (BID) from Days −7 to 20 with INS1007 Solution or vehicle, as indicated in Table 1. Animals in Group 8 were dosed via intraperitoneal (IP) injection once every third day (Q3D) from Day 0 to 18 with Anti-p40 mAb solution.
All animals were weighed daily and assessed visually for the presence of diarrhea and/or bloody stool at the time of dosing. Each mouse, under isoflurane anesthesia, underwent video endoscopy on Days 10, 14, & 21 using a small animal endoscope (Karl Storz Endoskope, Germany), to assess colitis severity. Colitis severity was scored using a 0-4 scale (0=normal; 1=loss of vascularity; 2=loss of vascularity and friability; 3=friability and erosions; 4=ulcerations and bleeding). Stool consistency was scored during endoscopy using the parameters defined in Table 2. Following endoscopy on day 21, all animals from each treatment group were sacrificed.

[2] = test system: DSS-induced colitis in C57BL/6 mice; experiment: DSS-induced colitis murine study, Example 1B (endoscopy, stool consistency, body weight); assay type: in vivo
Text: as §1, with “Ninety-five (95)” for “Seventy-nine (79)”, “20.6” for “23.32”, “(+0.16” for “(+1.53”
Solutions: The INS1007 Solution, Anti-p40 mAb solution and DSS Induction Solution were prepared and stored as described in Example 1A. […]
All animals were weighed daily and assessed visually for the presence of diarrhea and/or bloody stool at the time of dosing. […] Colitis severity was scored using the scale described in Example 1A. Stool consistency was scored during endoscopy using the parameters defined in Table 2. […]
Animals underwent endoscopy on Days 10 and 14, in order to assess colonic inflammation. Colitis was scored visually on a five-point scale using the method described in Example 1A. Stool consistency was scored visually on a five-point scale using the method described in Example 1A. […]
To determine the statistical significance of overall differences in mean percent body weight change between groups, the area under the curve (AUC) was calculated using the trapezoidal rule transformation and is shown in the FIG. 9.

Compound: Cn1c(=O)oc2ccc(-c3ccc(C[C@@H](C#N)NC(=O)[C@@H]4CNCCCO4)cc3)cc21 [INS1007, (2S)—N-{(1S)-1-cyano-2-[4-(3-methyl-2-oxo-2,3-dihydro-1,3-benzoxazol-5-yl)phenyl]ethyl}-1,4-oxazepane-2-carboxamide]
- mean endoscopy score ([1]; Day 10, DSS-Vehicle control 2.67): 2.25
- mean endoscopy score ([1]; Day 14, DSS-Vehicle control 2.79): 1.92
- mean endoscopy score ([1]; Day 21, DSS-Vehicle control 2.36): 2.08
- weight loss (percentage of starting weight on Day 0) ([1]; INS1007 PO BID, vs DSS-vehicle control (peak loss -18.46% Day 11)): modestly attenuated weight loss
- stool consistency scores ([1]; INS1007 at all three concentrations (0.1, 1, 10 mg/kg PO BID), Days 10, 14, 21, particularly Days 14 and 21): modest decreases in stool scores
- mean endoscopy score ([2]; Day 14, INS1007 0.3 mg/kg PO BID (Group 3), vs vehicle control (Group 2)): reduced
- body weight loss (AUC, calculated based on Day -7) ([2]; INS1007 1 mg/kg PO BID (Group 4), vs Group 2 (3% DSS+vehicle)): significantly decreased
